Literature values as cited in publication PMC4287394 (Clinical cancer research : an official journal of the …, 2014).

Conditions: Phase I; cited from earlier work

SMILES	Observed DLTs	Hyperglycaemia	Patients with rash (all grades)	Patients with rash
Nc1cc(C(F)(F)F)c(-c2cc(N3CCOCC3)nc(N3CCOCC3)n2)cn1 [BKM120]	rash, hyperglycemia and mood alterations	–	–	–
COc1ccc(Cl)c(Nc2nc3ccccc3nc2NS(=O)(=O)c2cccc(NC(=O)C(C)(C)N)c2)c1 [SAR245408]	–	minimal hyperglycaemia	26%	–
C=CCN(/C=C1/C(=O)O[C@H](COC)[C@@]2(C)C1=C(O)C(=O)C1=C2[C@H](OC(C)=O)C[C@]2(C)C(=O)CC[C@@H]12)CC=C [PX-866]	–	minimal hyperglycaemia	–	none
